From PubChem BioAssay AID2060333 (Molecular Pharmacology Branch, DTP, NCI, 2025)

System: 845751-090-R-J2-PDC tumor spheroid viability
Assay: Anticancer human tumor 845751-090-R-J2-PDC patient-derived head and neck squamous carcinoma cell line growth inhibition [IpAb]
Conditions: spheroids with HUVEC and MSC; for IC50: curve of first compound; for viability, T/C: stronger effect = lower value; active = viability on the fitted dose curve at most 10% of control; inactive = the rest
Method in brief: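 Multi-cell spheroids of 60% tumour cells, 25% HUVEC and 15% MSC in ultra-low-attachment U-bottom wells, treated with agents combined with ipatasertib or abemaciclib. Half-log ranges top out near clinical Cmax, or 10 microM when Cmax is unknown.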

[1] = second compound 0.01 µM, first compound 0.0316 µM
[2] = second compound 0.01 µM, first compound 0.1 µM
[3] = second compound 0.01 µM, first compound 0.316 µM
[4] = second compound 0.01 µM, first compound 1 µM
[5] = second compound 0.01 µM, first compound 3.16 µM
[6] = second compound 0.01 µM, first compound 10 µM
[7] = second compound 0.0316 µM, first compound 0.0316 µM
[8] = second compound 0.0316 µM, first compound 0.1 µM
[9] = second compound 0.0316 µM, first compound 0.316 µM
[10] = second compound 0.0316 µM, first compound 1 µM
[11] = second compound 0.0316 µM, first compound 3.16 µM
[12] = second compound 0.0316 µM, first compound 10 µM
[13] = second compound 0.1 µM, first compound 0.0316 µM
[14] = second compound 0.1 µM, first compound 0.1 µM
[15] = second compound 0.1 µM, first compound 0.316 µM
[16] = second compound 0.1 µM, first compound 1 µM
[17] = second compound 0.1 µM, first compound 3.16 µM
[18] = second compound 0.1 µM, first compound 10 µM
[19] = second compound 0.316 µM, first compound 0.0316 µM
[20] = second compound 0.316 µM, first compound 0.1 µM
[21] = second compound 0.316 µM, first compound 0.316 µM
[22] = second compound 0.316 µM, first compound 1 µM
[23] = second compound 0.316 µM, first compound 3.16 µM
[24] = second compound 0.316 µM, first compound 10 µM
[25] = second compound 1 µM, first compound 0.0316 µM
[26] = second compound 1 µM, first compound 0.1 µM
[27] = second compound 1 µM, first compound 0.316 µM
[28] = second compound 1 µM, first compound 1 µM
[29] = second compound 1 µM, first compound 3.16 µM
[30] = second compound 1 µM, first compound 10 µM
[31] = second compound 0.01 µM, first compound 0.00949 µM
[32] = second compound 0.01 µM, first compound 0.03 µM
[33] = second compound 0.01 µM, first compound 0.0949 µM
[34] = second compound 0.01 µM, first compound 0.3 µM
[35] = second compound 0.0316 µM, first compound 0.00949 µM
[36] = second compound 0.0316 µM, first compound 0.03 µM
[37] = second compound 0.0316 µM, first compound 0.0949 µM
[38] = second compound 0.0316 µM, first compound 0.3 µM
[39] = second compound 0.1 µM, first compound 0.00949 µM
[40] = second compound 0.1 µM, first compound 0.03 µM
[41] = second compound 0.1 µM, first compound 0.0949 µM
[42] = second compound 0.1 µM, first compound 0.3 µM
[43] = second compound 0.316 µM, first compound 0.00949 µM
[44] = second compound 0.316 µM, first compound 0.03 µM
[45] = second compound 0.316 µM, first compound 0.0949 µM
[46] = second compound 0.316 µM, first compound 0.3 µM
[47] = second compound 1 µM, first compound 0.00949 µM
[48] = second compound 1 µM, first compound 0.03 µM
[49] = second compound 1 µM, first compound 0.0949 µM
[50] = second compound 1 µM, first compound 0.3 µM
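Also: spheroids exposed to compounds for 7 days before readout.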
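For viability, T/C in this document: CTG3D luminescence normalised so that 100% = DMSO vehicle control.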

C=CC(=O)N1CCN(c2nc(=O)n(-c3c(C)ccnc3C(C)C)c3nc(-c4c(O)cccc4F)c(F)cc23)C(C)C1 (stereo not given) + CCN1CCN(Cc2ccc(Nc3ncc(F)c(-c4cc(F)c5nc(C)n(C(C)C)c5c4)n3)nc2)CC1
2250 nM: IC50 (second compound 0.0316 µM) | IC50 (second compound 1 µM)
1870 nM: IC50 (second compound 0.316 µM)
inactive: viability, T/C [1] 95.2% | viability, T/C [2] 96.3% | viability, T/C [3] 102% | viability, T/C [4] 82.3% | viability, T/C [5] 53.7% | viability, T/C [6] 46.9% | viability, T/C [7] 64% | viability, T/C [8] 84.3% | viability, T/C [9] 70.9% | viability, T/C [10] 66% | viability, T/C [11] 43.3% | viability, T/C [12] 31.7% | viability, T/C [13] 67.2% | viability, T/C [14] 115% | viability, T/C [15] 74.6% | viability, T/C [16] 56.1% | viability, T/C [17] 46% | viability, T/C [18] 27.2% | viability, T/C [19] 61.5% | viability, T/C [20] 67.9% | viability, T/C [21] 72.5% | viability, T/C [22] 55.7% | viability, T/C [23] 43% | viability, T/C [24] 16.9% | viability, T/C [25] 62.6% | viability, T/C [26] 62.4% | viability, T/C [27] 72.2% | viability, T/C [28] 59.9% | viability, T/C [29] 45.4% | viability, T/C [30] 28.4%
1690 nM: IC50 (second compound 0.1 µM)
5850 nM: IC50 (second compound 0.01 µM)

CC(=O)c1c(C)c2cnc(Nc3ccc(N4CCNCC4)cn3)nc2n(C2CCCC2)c1=O + CCN1CCN(Cc2ccc(Nc3ncc(F)c(-c4cc(F)c5nc(C)n(C(C)C)c5c4)n3)nc2)CC1
inactive: viability, T/C (second compound 0.01 µM, first compound 0.000949 µM) 115% | viability, T/C (second compound 0.01 µM, first compound 0.003 µM) 93.8% | viability, T/C [31] 84.8% | viability, T/C [32] 91% | viability, T/C [33] 93.4% | viability, T/C [34] 76.7% | viability, T/C (second compound 0.0316 µM, first compound 0.000949 µM) 77.2% | viability, T/C (second compound 0.0316 µM, first compound 0.003 µM) 62.8% | viability, T/C [35] 63.6% | viability, T/C [36] 73.9% | viability, T/C [37] 65.5% | viability, T/C [38] 59.2% | viability, T/C (second compound 0.1 µM, first compound 0.000949 µM) 49.8% | viability, T/C (second compound 0.1 µM, first compound 0.003 µM) 71.8% | viability, T/C [39] 75.4% | viability, T/C [40] 71.2% | viability, T/C [41] 75.9% | viability, T/C [42] 65.8% | viability, T/C (second compound 0.316 µM, first compound 0.000949 µM) 53.1% | viability, T/C (second compound 0.316 µM, first compound 0.003 µM) 69.7% | viability, T/C [43] 88% | viability, T/C [44] 81.7% | viability, T/C [45] 61% | viability, T/C [46] 50.6% | viability, T/C (second compound 1 µM, first compound 0.000949 µM) 90.4% | viability, T/C (second compound 1 µM, first compound 0.003 µM) 86.4% | viability, T/C [47] 99.5% | viability, T/C [48] 77.7% | viability, T/C [49] 70.9% | viability, T/C [50] 53.6%
> 300 nM: IC50 (second compound 0.01 µM) | IC50 (second compound 0.0316 µM) | IC50 (second compound 0.1 µM) | IC50 (second compound 0.316 µM) | IC50 (second compound 1 µM)

CC(C)(C)c1cnc(CSc2cnc(NC(=O)C3CCNCC3)s2)o1 + CCN1CCN(Cc2ccc(Nc3ncc(F)c(-c4cc(F)c5nc(C)n(C(C)C)c5c4)n3)nc2)CC1
inactive: viability, T/C [31] 112% | viability, T/C [32] 91.9% | viability, T/C [33] 55% | viability, T/C [35] 92.8% | viability, T/C [36] 102% | viability, T/C [37] 34.5% | viability, T/C [39] 90.5% | viability, T/C [40] 69.6% | viability, T/C [41] 27.7% | viability, T/C [43] 76% | viability, T/C [44] 57.9% | viability, T/C [45] 11.5% | viability, T/C [47] 62% | viability, T/C [48] 63.1%
71.4 nM: IC50 (second compound 0.0316 µM)
51.2 nM: IC50 (second compound 0.1 µM)
36.5 nM: IC50 (second compound 0.316 µM)
active: viability, T/C [34] 1.28% | viability, T/C (second compound 0.01 µM, first compound 0.949 µM) 1.21% | viability, T/C (second compound 0.01 µM, first compound 3 µM) 1.79% | viability, T/C [38] 1.59% | viability, T/C (second compound 0.0316 µM, first compound 0.949 µM) 0.68% | viability, T/C (second compound 0.0316 µM, first compound 3 µM) 0.88% | viability, T/C [42] 1.77% | viability, T/C (second compound 0.1 µM, first compound 0.949 µM) 0.43% | viability, T/C (second compound 0.1 µM, first compound 3 µM) 0.69% | viability, T/C [46] 0.79% | viability, T/C (second compound 0.316 µM, first compound 0.949 µM) 0.67% | viability, T/C (second compound 0.316 µM, first compound 3 µM) 0.6% | viability, T/C [49] 3.89% | viability, T/C [50] 2.43% | viability, T/C (second compound 1 µM, first compound 0.949 µM) 1.4% | viability, T/C (second compound 1 µM, first compound 3 µM) 0.76%
38.4 nM: IC50 (second compound 1 µM)
97.3 nM: IC50 (second compound 0.01 µM)

Cn1nccc1Nc1nccc(-c2ccn(C(CO)c3ccc(Cl)c(F)c3)c(=O)c2)n1 (stereo not given) + CCN1CCN(Cc2ccc(Nc3ncc(F)c(-c4cc(F)c5nc(C)n(C(C)C)c5c4)n3)nc2)CC1
> 10000 nM: IC50 (second compound 0.01 µM) | IC50 (second compound 0.0316 µM) | IC50 (second compound 0.1 µM) | IC50 (second compound 0.316 µM) | IC50 (second compound 1 µM)
inactive: viability, T/C [1] 185% | viability, T/C [2] 202% | viability, T/C [3] 192% | viability, T/C [4] 227% | viability, T/C [5] 198% | viability, T/C [6] 135% | viability, T/C [7] 143% | viability, T/C [8] 191% | viability, T/C [9] 216% | viability, T/C [10] 211% | viability, T/C [11] 169% | viability, T/C [12] 133% | viability, T/C [13] 154% | viability, T/C [14] 190% | viability, T/C [15] 181% | viability, T/C [16] 204% | viability, T/C [17] 185% | viability, T/C [18] 132% | viability, T/C [19] 156% | viability, T/C [20] 178% | viability, T/C [21] 210% | viability, T/C [22] 204% | viability, T/C [23] 174% | viability, T/C [24] 106% | viability, T/C [25] 161% | viability, T/C [26] 211% | viability, T/C [27] 224% | viability, T/C [28] 215% | viability, T/C [29] 171% | viability, T/C [30] 86.3%
